Entries after “also recorded” stand apart in the source; their conditions may differ. Like-named read-outs stand apart in the source and are kept apart here.
Experiments:
[1] = test system: normal pigs; assay: Haemodynamic effects after LAD injection in normal pigs without balloon occlusion (Example 2b); type: in vivo, pig; conditions: 25 ml (0.4 ml/sec) into LAD, 9 injections in 3 pigs
From the text: FIG. 5 depicts the effect of Compound I (with and without added Ca) and Visipaque on LVSP 45 to 70 seconds from the start of injection to the LAD of normal pigs normalised to Ringer Lacate (LR) injection.
The haemodynamic effects of compositions of Compound I with and without added CaCl2 were compared to Visipaque and Iopamidol following selective administration to the LAD in normal pigs without balloon occlusion. The effects of each contrast media were normalised to any effects seen with an equivalent injection of Ringer Lactate solution, which acted as a volume and electrolyte—“ratio” control. There were a total of 12 pigs in this study, and each pig received a single CM injected 3 times at volumes of 10 ml (4 ml/sec), 20 ml (1 ml/sec) and 25 ml (0.4 ml/sec) (total of 9 CM injections in each pig). Each CM was either preceded or followed by a control injection of Ringer Lactate, and the order of each injection (volume) was randomised in each pig.

[2] = test system: human serum albumin (HSA); assay: Binding to human serum albumin, equilibrium dialysis; type: in vitro ADME; conditions: 25 hours, citrated human plasma
Description: The binding of Compound I to human serum albumin (HSA) was determined using an equilibrium dialysis method. The binding of Compound I to human serum albumin was determined to be very low, 3.1±1.3%, confirming the negligible interaction of the substance with endogenous proteins.
The binding of Compound I to human serum albumin (HSA) was determined using an equilibrium dialysis method. A stock solution of Compound I (5.0 mg/ml in phosphate buffered saline (PBS)) was mixed with citrate:human plasma in a ratio of 1:9. Equilibration was carried out in a Diachem Dianorm Dialyser against an aqueous phosphate buffered saline using a Diachem 10.17 MW cutoff 10000 membrane and was carried out for 25 hours. Analysis of the solutions was performed using an ICP-AES instrument. In addition, spiked PBS solutions were also equilibrated against citrated human plasma solutions to ensure that the equilibrium had been obtained. The binding of Compound I to human serum albumin was determined to be very low, 3.1±1.3%, confirming the negligible interaction of the substance with endogenous proteins. As a reference, the binding of iodixanol to HSA was determined to 0.4±0.9%.

[3] = Partition coefficient between octanol and water; type: physicochemical; conditions: n-octanol/water
Description: As a measure of the hydrophilicity of Compound I, the partition coefficient between octanol and water was determined. Water (5 ml) containing the test substance (0.3 mg/ml) was shaken with 15 ml n-octanol until equilibrium had been obtained. The aqueous phase was separated by centrifugation and analyzed by HPLC (HP1100 equipped with a Discovery C18 column, 100×2.1 mm) using UV detection at 244 nm and a flow of 0.3 ml/min. Isocratic HPLC conditions were used, 8% acetonitrile in water (v/v). The octanol phase (12.5 ml) was extracted with water (0.75 ml) until equilibrium had been obtained and the phases were separated by centrifugation. The aqueous phase was analyzed by HPLC using the conditions detailed above. Both octanol and water were pre-saturated with water and octanol, respectively, before the partition coefficient experiments. […] As a comparison, the corresponding logP of iodixanol was determined to −4.02. The reported literature value is −4.05. The increased hydrophilicity of Compound I compared to iodixanol is confirmed by its HPLC behavior.

[4] = Osmolality, vapour pressure osmometer; type: physicochemical; conditions: 320 mgI/ml
Description: The osmolality of Compound I was determined at four different concentrations, 204, 254, 310 and 324 mgI/ml. The osmolality of Compound I at 320 mgI/ml is 136 mOsm/kg.
The osmolality of Compound I was determined at four different concentrations, 204, 254, 310 and 324 mgI/ml. A Vapro 5520 vapour pressure osmometer from Vapro Inc. was used.
The osmolality of Compound I at 320 mgI/ml is lower than that of iodixanol, 136 mOsm/kg vs 210 mOsm/kg at 320 mgI/ml.

[5] = test system: Sca:SD rats; conditions: rat, in vivo
Description: Young adult male Sca:SD rats (Scanbur, Sweden), weighing 200±20 g, were injected intravenously at a rate of 1.2 ml/min with either Compound I (340 mgI/mL, 286 mosmol/kg), iodixanol (321 mgI/mL, 284 mosmol/kg), osmotic control mannitol (283 mosmol/kg), or saline (290 mosmol/kg), administered as 2 separate doses 4 hours apart. For the interim kill animals (day 2 post-treatment), Compound I and iodixanol were dosed at 8, 10 and 12.8 gI/kg, corresponding to total dose volumes of 23.7, 29.7 and 38.0 ml/kg, and 25, 31.3 and 40 ml/kg, respectively, whereas for mannitol and saline, the dose volume was 40 ml/kg. For the 7 day terminal kill animals, there were 4 dose groups; Compound I and iodixanol (12.8 gI/kg), and saline and mannitol (40 mL/kg). In all cases, each group included 8 animals.
The following evaluations were made during the study; clinical signs, body weights and blood for haematology and clinical chemistry on days 0, 2 and 7, and gross observations, organ weight and histomorphological examination of tissues from the animals killed by excess intravenous thiopental injection on days 2 or 7. The day of dosing was defined as Day 0. Clinical biochemistry parameters (Na, K, Cl, PO4, Ca, AST, ALT, ALP, cholesterol, creatinine, CK, GGT, TG (triglyceride), total bilirubin, total protein, urea, albumin, LDH and GLDH were measured on a Beckman Synchron CX5 at 37° C. Haematology parameters (WBC, differential WBC, RBC, WBC/RBC ratio, Hgb, PLT, HCT, MCH, MCHC, MCV, MPV and RDW) were analyzed with an Abbott Cell-Dyn 3500 CS automated haematology analyzer. Kidneys from saline control and the 12.8 gI/kg Compound I and iodixanol groups were immerse fixed in 10% neutral buffered formalin, processed into paraffin wax, sectioned at a nominal thickness of 5 μm, stained with haematoxylin and eosin and examined by light microscopy.
The data were analysed by parametric one-way ANOVA, followed by Dunnett's post procedure test, using the 2 days and 7 days saline groups for comparison with the 2 days and 7 days iodixanol and Compound I groups. The statistical analysis was applied on day −1 (baseline), day 2 and day 7.

[6] = test system: CD25^+-depleted peripheral blood mononuclear cells; assay: In vitro T cell proliferation model; type: cell-based; conditions: 2 and 5 mg I/mL
Description: Generally, iodinated contrast media may cause late hypersensitivity reactions in susceptible patients from 1 hour to several days after exposure. These reactions are mainly non-serious skin eruptions such as macular, maculopapular and urticaria-like eruptions. Contrast media-induced delayed adverse reactions (DARs) such as skin eruptions appear to be caused by contrast media-reactive T cells that, upon recognizing the contrast media, proliferate and subsequently orchestrate an inflammatory reaction in the skin. The applicant has evaluated an in vitro T cell proliferation model designed to predict the relative frequency with which contrast media, such as Compound I, will cause late skin reactions in patients post-intravascular administration. Two contrast media, iodixanol and iohexol, with known rates of delayed skin reactions, and the new contrast medium, Compound I, was screened (2 and 5 mg I/mL) for in vitro T cell proliferation in CD25^+-depleted peripheral blood mononuclear cells from 100 donors representing world population HLA-DR frequencies. Positive T cell responses were evaluated according to published protocols and stimulation index values (positive response≧1.9). In vitro toxicity was tested by measuring cell viability of the first 10 donor samples incubated with test contrast media (5 mg I/mL). The results were that all major HLA-DR allotypes were represented with a frequency equivalent to the world population. No contrast media tested appeared to have a meaningful effect on cell viability. […] For iodixanol and iohexol, T cell proliferation responses for most donors occurred on days 7 and 8; statistical significance favored a reduced proliferation response to Compound I on day 8. In conclusions the model successfully established the relative frequency with which contrast media caused in vitro T cell activation. The results correlated with reported frequency of late skin reactions with two marketed contrast media and identified a lower frequency for Compound I.

[7] = octanol/water; cited from earlier work

Row | SMILES | induction of ventricular fibrillation (VF) [1] | binding to human serum albumin (HSA) [2] [%] | logP [3] | osmolality [4] [mOsm/kg] | Glomerulus: Bowman's Space Proteinaceous Material, Right Kidney ([5]; male, Sca:SD, 2 day) | duration of clinical signs ([5]; male, Sca:SD, iv) [h] | onset of clinical signs after the first administration ([5]; male, Sca:SD, iv) [min] | Glomerulus: Bowman's Space Proteinaceous Material, Right Kidney [5] | adverse clinical signs ([5]; iv) | days on which T cell proliferation responses occurred for most donors [6] | logP, reported literature value [7]
1 | C[C@H](O)C(=O)Nc1c(I)c(C(=O)NC(CO)CO)c(I)c(C(=O)NC(CO)CO)c1I [Iopamidol, reference compound] | VF was observed in each case; also recorded: induced VF on every occasion |  |  |  |  |  |  |  |  |  | 
2 | CC(=O)N(CC(O)CN(C(C)=O)c1c(I)c(C(=O)NCC(O)CO)c(I)c(C(=O)NCC(O)CO)c1I)c1c(I)c(C(=O)NCC(O)CO)c(I)c(C(=O)NCC(O)CO)c1I (stereo not drawn) [iodixanol, reference compound] |  | 0.4±0.9 | -4.02 | 210 | P, P, P, 0 | 2 to 3 | 10 to 20 | P, P, P, P, | mild to moderate depression and uncoordinated movements and weakness/inactivity | days 7 and 8 | −4.05
3 | CC(=O)N(CC(O)CO)c1c(I)c(C(=O)NCC(O)CO)c(I)c(C(=O)NCC(O)CO)c1I (stereo not drawn) [iohexol, reference compound] |  |  |  |  |  |  |  |  |  | days 7 and 8 | 

Reference: US8815210B2, “Diagnostic composition comprising plasma cations having superior safety profile” (GE Healthcare AS, priority 2009, dated 2014)
